Test results reported in US5703097A, “5-pyrrolyl-2-pyridylmethylsulfinyl benzimidazole derivatives” (priority 1994, dated 1997).
pIC50: −log10 of the molar value. Where a name gives a salt, the structure may show the parent alone.

Experiments:
H^+ /K^+ -ATPase = target: T1, H^+ /K^+ -ATPase (Oryctolagus cuniculus, UniProt P27112); test: Inhibition of enzyme activity: in vitro inhibition of H+/K+-ATPase (TEST 1); type: biochemical, rabbit; details: 5 min pre-incubation at 37° C., 4 mM ATP
T1 construct: The gastric mucous membrane was removed from a rabbit; from tissue; host or cells: rabbit gastric mucosa, microsomal fraction (77,000 g)
Protocol: In this test, omeprazole [5-methoxy-2-[[(4-methoxy-3,5-dimethyl-2-pyridinyl)methyl]sulfinyl]-1H-benzimidazole] was used as the control compound.
The gastric mucous membrane was removed from a rabbit and then centrifuged with 77,000 g using a ultra-centrifuge to separate the microsomal fraction which was used as the source of H^+ /K^+ -ATPase enzyme for this test. 60 μg of H^+ /K^+ -ATPase was pre-incubated with the sample (the compound according to the present invention) for 5 minutes at 37° C. and then 4 mM ATP as the substrate and 4 mM Mg^++, 20 mM K^+ as the cofactor were added thereto. Then, the amount of inorganic phosphorus thus produced was determined using a spectrophotometer at 660 nm and converted into the amount of protein. […]

gastric juice secretion = test: Effect on inhibition of gastric juice secretion, in vivo, Shay method (TEST 2); design: species or system rat (SD male rats); details: for Volume of gastric juice / Inhibition rate, gastric juice secretion: 5 hours; for Volume of gastric juice: pylorus-ligated rats; for Inhibition rate, gastric juice secretion: vs normal group; for effect for inhibition of gastric acid secretion / inhibition of gastric juice secretion: in words; for inhibition of gastric juice secretion: even at a lower dose than that of the known anti-ulcer agent
Protocol: (§1) The specific test methods are as follows.
(§2) SD male rats (200±20 g) were fasted for 24 hours, except for water, and then anesthesized with ether. The abdomen of rats was incised and then the pylorus was ligated. The test compounds were suspended or dissolved in 5% CMC (carboxymethylcellulose) and injected into duodenum. After the abdomen was sutured, the rats were allowed to stand for 5 hours and then sacrificed with ether. The stomach was removed from rats and the gastric juices were collected. The gastric juice was centrifuged with 10,000 xg for 10 minutes at 4° C. to remove the precipitate. The amount of gastric juice and acidity were determined using pH 7.0 end point assay with 0.02N NaOH and then the total acid output was calculated.

gastric acidity = test: Effect on inhibition of acidity (total acid output), in vivo, Shay method (TEST 2); design: species or system rat (SD male rats); details: for Volume (acidity, total acid output) / Inhibition rate, acidity: 5 hours; for Volume (acidity, total acid output): pylorus-ligated rats; for Inhibition rate, acidity: vs normal group; for effect for lowering acidity / acidity lowering effect: in words; for acidity lowering effect: even at a lower dose than that of the known anti-ulcer agent
Protocol: as §1, §2

in vivo = details: mouse, po
Protocol: (§3) Five weeks aged ICR (male, female) mouse were pre-bred in the breeding cage for one week and then the animals showing a smooth gain in body weight were randomly selected and used in this test. The amount to be administered to the test animals was established on the basis of the maximum dose of 4,000 mg/kg with the common ratio of 1.5.
(§4) The test compounds in a powder form were suspended in 0.5% methylcellulose and administered per oral using a syringe. The other specific conditions for administration are described in the following.
(§5) In the above test, the control group received only 0.5% methylcellulose.

ICR (male, female) mouse = test: in vivo; details: po
Protocol: as §3, §4, §5

[1] = 3 mg/kg, into duodenum, sodium salt
[2] = 10 mg/kg, into duodenum, sodium salt
[3] = 30 mg/kg, into duodenum, sodium salt

T1 sequence (P27112 2-1035 limits assumed): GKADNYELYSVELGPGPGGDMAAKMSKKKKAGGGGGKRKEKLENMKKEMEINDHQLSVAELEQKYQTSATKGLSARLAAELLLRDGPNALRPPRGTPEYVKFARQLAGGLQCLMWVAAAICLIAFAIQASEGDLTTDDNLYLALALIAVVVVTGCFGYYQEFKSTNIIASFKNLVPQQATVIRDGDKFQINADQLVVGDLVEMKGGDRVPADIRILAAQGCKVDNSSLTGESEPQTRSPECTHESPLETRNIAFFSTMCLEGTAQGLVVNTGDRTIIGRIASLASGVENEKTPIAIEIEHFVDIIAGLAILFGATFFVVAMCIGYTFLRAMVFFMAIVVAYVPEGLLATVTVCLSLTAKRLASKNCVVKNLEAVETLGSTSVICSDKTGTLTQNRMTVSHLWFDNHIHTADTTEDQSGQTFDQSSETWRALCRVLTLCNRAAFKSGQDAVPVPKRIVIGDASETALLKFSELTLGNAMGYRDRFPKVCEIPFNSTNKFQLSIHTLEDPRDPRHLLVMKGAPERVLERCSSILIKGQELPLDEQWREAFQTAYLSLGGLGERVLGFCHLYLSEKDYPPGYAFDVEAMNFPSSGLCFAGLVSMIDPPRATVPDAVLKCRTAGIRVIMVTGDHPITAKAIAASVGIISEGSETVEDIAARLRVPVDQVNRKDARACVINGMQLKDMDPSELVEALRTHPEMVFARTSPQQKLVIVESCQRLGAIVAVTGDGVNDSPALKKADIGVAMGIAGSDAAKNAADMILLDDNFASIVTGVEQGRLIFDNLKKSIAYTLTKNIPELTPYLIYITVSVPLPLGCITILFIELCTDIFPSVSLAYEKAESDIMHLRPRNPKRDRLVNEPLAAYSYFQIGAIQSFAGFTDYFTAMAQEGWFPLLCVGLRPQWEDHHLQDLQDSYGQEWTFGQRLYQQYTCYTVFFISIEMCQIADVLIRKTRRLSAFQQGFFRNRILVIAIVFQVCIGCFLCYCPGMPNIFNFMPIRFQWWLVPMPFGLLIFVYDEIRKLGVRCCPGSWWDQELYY
T1 sequence (P18597 whole entry partner): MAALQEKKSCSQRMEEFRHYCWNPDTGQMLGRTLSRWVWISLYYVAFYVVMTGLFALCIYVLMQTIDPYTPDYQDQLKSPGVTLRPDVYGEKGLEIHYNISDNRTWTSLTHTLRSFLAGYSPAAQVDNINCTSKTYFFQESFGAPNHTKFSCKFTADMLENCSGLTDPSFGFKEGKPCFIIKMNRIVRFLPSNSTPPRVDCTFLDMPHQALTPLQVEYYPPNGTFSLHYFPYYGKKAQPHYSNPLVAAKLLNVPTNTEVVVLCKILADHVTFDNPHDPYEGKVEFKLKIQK

| SMILES | pIC50 (H^+ /K^+ -ATPase) | Volume of gastric juice (gastric juice secretion; 3 mg/kg, into duodenum) | Inhibition rate, gastric juice secretion (gastric juice secretion; 3 mg/kg, into duodenum) | Volume of gastric juice (gastric juice secretion; 10 mg/kg, into duodenum) | Inhibition rate, gastric juice secretion (gastric juice secretion; 10 mg/kg, into duodenum) | Volume of gastric juice (gastric juice secretion; 30 mg/kg, into duodenum) | Inhibition rate, gastric juice secretion (gastric juice secretion; 30 mg/kg, into duodenum) | Volume (acidity, total acid output) (gastric acidity; 3 mg/kg, into duodenum) | Inhibition rate, acidity (gastric acidity; 3 mg/kg, into duodenum) | Volume (acidity, total acid output) (gastric acidity; 10 mg/kg, into duodenum) | Inhibition rate, acidity (gastric acidity; 10 mg/kg, into duodenum) | Volume (acidity, total acid output) (gastric acidity; 30 mg/kg, into duodenum) | Inhibition rate, acidity (gastric acidity; 30 mg/kg, into duodenum) | effect for inhibition of gastric acid secretion (gastric juice secretion) | inhibition of gastric juice secretion (gastric juice secretion) | effect for lowering acidity (gastric acidity) | acidity lowering effect (gastric acidity) | further results |
| --- | --- | --- | --- | --- | --- | --- | --- | --- | --- | --- | --- | --- | --- | --- | --- | --- | --- | --- |
| COc1cc(C[S+]([O-])c2nc3cc(-n4cccc4)ccc3[nH]2)ncc1C (stereo not shown) [Compound 18] | 4.42 | 2.24 ± 0.12 ml/100 g BW | 27.35% | 2.14 ± 0.30 ml/100 g BW | 30.90% | 1.53 ± 0.19 ml/100 g BW | 50.42% | 28.37 ± 3.44 μ Eq/hr | 53.39% | 23.40 ± 3.94 μ Eq/hr | 61.55% | 15.72 ± 3.60 μ Eq/hr | 74.18% |  |  |  |  |  |
| COc1ccc2[nH]c([S+]([O-])Cc3ncc(C)c(OC)c3C)nc2c1 (stereo not shown) [Omeprazole, 5-methoxy-2-[[(4-methoxy-3,5-dimethyl-2-pyridinyl)methyl]sulfinyl]-1H-benzimidazole, reference compound] | ~3.80 |  |  | 1.68 ± 0.30 ml/100 g BW | 54.49% |  |  |  |  | 12.46 ± 1.85 μ Eq/hr | 84.00% |  |  |  |  |  |  |  |
| COc1ccnc(C[S+]([O-])c2nc3cc(-n4cccc4)ccc3[nH]2)c1C (stereo not shown) [Compound 2, 2-[[(4-methoxy-3-methyl)-2-pyridinyl]methylsulfinyl]-5-(1H-pyrrol-1-yl)-1H-benzimidazole] | 4.64 | 1.98 ± 0.23 ml/100 g BW | 46.45% | 1.31 ± 0.10 ml/100 g BW | 64.55% | 0.99 ± 0.14 ml/100 g BW | 73.11% | 31.09 ± 4.10 μ Eq/hr | 60.08% | 10.20 ± 1.93 μ Eq/hr | 86.90% | 5.32 ± 3.30 μ Eq/hr | 93.17% | good effects | strong inhibition of gastric juice secretion | good effects | high acidity lowering effect | ED50 (gastric juice secretion; Rattus norvegicus, 5 h, rats, into duodenum, read-out: ED50 for the effect on inhibition of gastric acid secretion): 3.6 mg/kg; ED50 (gastric acidity; Rattus norvegicus, 5 h, rats, into duodenum): 1.6 mg/kg; LD50 (in vivo): ≥ 4000 mg/kg; LD50 (ICR (male, female) mouse): > 4000.0 mg/kg; change in body weight (ICR (male, female) mouse): does not affect the normal change in body weight; change in internal and external organs (ICR (male, female) mouse): no effect on the internal and external organs; safety (ICR (male, female) mouse): very safe compound |
| COc1cc(C[S+]([O-])c2nc3cc(-n4cccc4)ccc3[nH]2)ncc1C (stereo not shown) [Compound 5] | 4.49 |  |  | 1.31 ± 0.23 ml/100 g BW | 52.81% | 0.99 ± 0.16 ml/100 g BW | 64.30% |  |  | 16.89 ± 4.06 μ Eq/hr | 70.60% | 5.59 ± 2.22 μ Eq/hr | 90.27% | good effects | strong inhibition of gastric juice secretion | good effects | high acidity lowering effect |  |
| COc1ccnc(C[S+]([O-])c2nc3cc(-n4cccc4)ccc3[nH]2)c1C (stereo not shown) [Compound 16, 2-[[(4-methoxy-3-methyl)-2-pyridinyl]methylsulfinyl]-5-(1H-pyrrol-1-yl)-1H-benzimidazole sodium salt] | 4.55 |  |  |  |  |  |  |  |  |  |  |  |  | good effects |  | good effects |  | Volume of gastric juice (gastric juice secretion; [1]): 2.05 ± 0.16 ml/100 g BW; Inhibition rate, gastric juice secretion (gastric juice secretion; [1]): 41.29%; Volume of gastric juice (gastric juice secretion; [2]): 1.35 ± 0.12 ml/100 g BW; Inhibition rate, gastric juice secretion (gastric juice secretion; [2]): 61.51%; Volume of gastric juice (gastric juice secretion; [3]): 1.17 ± 0.20 ml/100 g BW; Inhibition rate, gastric juice secretion (gastric juice secretion; [3]): 66.61%; Volume (acidity, total acid output) (gastric acidity; [1]): 22.59 ± 2.88 μ Eq/hr; Inhibition rate, acidity (gastric acidity; [1]): 70.05%; Volume (acidity, total acid output) (gastric acidity; [2]): 10.99 ± 3.05 μ Eq/hr; Inhibition rate, acidity (gastric acidity; [2]): 85.43%; Volume (acidity, total acid output) (gastric acidity; [3]): 1.98 ± 1.21 μ Eq/hr; Inhibition rate, acidity (gastric acidity; [3]): 97.37% |
